“And” between values parts separate entries of the source, which are not always exact repeats. Equal entries are not always repeated. “Also recorded” adds a separate entry of the source.
How the values were obtained:
mouse BM-MSC cultures = test: Osteogenic and adipogenic differentiation of mouse BM-MSC; type: cell-based
Protocol: During the process of culture, expansion, or maintenance of MSCs, it is imperative that these cells maintain their functional properties so they can be used for specific downstream applications, including characterization by differentiation. […] BM-MSCs that were initially exposed to vehicle- or GW2580-containing media were plated at 3 different densities (FIG. 18A) in MesenCult Proliferation Medium and allowed to adhere to the plates overnight. Cultures were then differentiated for 14 days in MesenCult Osteogenic Medium, and the medium changed every 3 days. Osteogenic cultures were then fixed and stained for alkaline phosphates (ALP) activity (red areas) and mineralization (black areas). In control cultures ([…]), a modest differentiation into the osteogenic lineage was only observed when cultures were seeded at the highest density of 1.2×10^5 cells/cm^2. […] Cultures were then differentiated for 14 days into the adipogenic and osteogenic lineages (FIG. 18B).

mouse myeloid cells = conditions: at 700 nM; cited from earlier work
[1] = tested on: BM-derived cultures (CD45+/CD11b+ macrophages, Sca1+ monocytes); test: Flow cytometry of BM-derived expansion cultures; type: cell-based, mouse
Protocol: (§1) c. Expansion of Human BM and Mouse BM and CB-Derived Cells Assay • 1. […] Cultures were allowed to grow for 10-14 days until adherent cells achieved 70 to 80% confluence. Mouse cultures were maintained under normal (5% CO2) or hypoxic conditions (5% CO2/5% O2) at 37 C in a cell culture incubator. Human cultures were maintained under 5% CO2 at 37 C in a humidified cell culture incubator. • 3. Adherent cells were passaged by releasing cultures from flask. Cultures were washed with 5 mL PBS and then 5 mL of 0.25% trypsin solution ([…] catalogue #07901) was added and the flasks incubated for 10 min at 37 C. To each flask, 5 mL complete medium was added to stop trypsin activity. • 4. Released cells were collected into a tube and centrifuged at 300×g for 5 minutes. • 5. Cells were resuspended in 2 mL of medium and counted using a hemocytometer. • 6. […] P1 cultures were incubated until they reached 70 to 80% confluence. • 8. Passaged cultures can be used at any time from P0 to P10 as needed for different applications.
d. Flow Cytometry Analysis • 1. Cultures of BM and CB-derived cells were trypsinized for 10 minutes and an equal volume of complete medium was added to cultures to stop trypsin activity • 2. Cell suspension was filtered through a 40 μm strainer, and cells counted using a hemocytometer • 3. Suspension was spun down at 300×g for 5 minutes. • 4. Supernatant was removed and cell pellet resuspended in FACS buffer (PBS with 2% FBS and 1 mM EDTA) • 5. A total of 1×10^5 cells in 300 μL FACS buffer was used for each flow cytometry analysis tube, including unstained, viability, compensation, and isotype controls. • 6. Cell suspensions were stained with fluorophore-labeled antibodies against CD45, CD11b, and Sca1, CD29, and viability dye. • 7. Cell suspensions were analyzed on a flow cytometer using compensation and isotype control to determine laser voltage and gating. • 8. Samples were gated on viable CD45^+ cells and 10,000 events per sample were collected. Alternatively, cells were gated on viable CD45^− cells and out of this gate the proportion of CD29+/Sca1^+ cells obtained.

[2] = tested on: BM-derived cultures (macrophage contamination, MSC morphology); test: Images of BM-derived expansion cultures; type: cell-based, mouse; conditions: for macrophage contamination and MSC enrichment (images): BM
Protocol: as §1

[3] = tested on: mouse CB-derived cells (MSC colonies); test: Mouse CB-derived CFU-F assay; type: cell-based; conditions: 14 days
Protocol: a. Mouse BM and CB-Derived CFU-F Assay • 1. […] Medium was removed cultures washed with 2 mL PBS. • 4. Cells were fixed by adding 2 mL methanol/well and incubated at room temperature for 5 minutes. • 5. Methanol was removed and plates allowed to air dry for 5 minutes. • 6. To each well, 2 mL Toluidine blue solution was added and incubated for 30 minutes at room temperature. • 7. Toluidine blue solution was removed and wells rinsed with water. • 8. Water was removed and plates allowed to dry. • 9. Colony formation was assessed by enumeration and colony size. Mouse CB-derived cells were isolated as described previously and CFU-F assays setup as described above. […] Cultures were then stained with Toluidine blue and colony formation and appearance assessed. Three independent assays CFU-F assays for both BM- and CB-MSC were setup as in Example 4a and 4b. […] These assays were maintained for 14 days without media change. At the end of day 14, cultures were fixed and stained with toluidine blue and the number of MSC colonies counted.

human BM-derived MSCs = test: Adipogenic and osteogenic differentiation of human BM-derived MSCs; type: cell-based; conditions: human BM-MSC expanded to P2 in 1 μM, 3 weeks differentiation, Oil red O / silver nitrate
Protocol: as §1
BM-derived cultures were isolated as described above and expansion assays setup as described above. […] At the end of P2, cell were dissociated by trypsin digestion and replated at 3×10^4 cells/cm^2 in 12-well plates for differentiation assays. Differentiation cultures were maintained for 3 weeks in adipogenic or osteogenic differentiation media. […]

[4] = CB-MSC, assay 1, 1 uM GW2580, 1.0 × 10^5 cells plated
[5] = CB-MSC, assay 1, 1 uM GW2580, 2.5 × 10^5 cells plated
[6] = CB-MSC, assay 1, 1 uM GW2580, 5.0 × 10^4 cells plated
[7] = CB-MSC, assay 1, 1 uM GW2580, Sum of the three densities
[8] = CB-MSC, assay 2, 2.5 uM GW2580, 1.0 × 10^6 cells plated
[9] = CB-MSC, assay 2, 2.5 uM GW2580, 2.5 × 10^5 cells plated
[10] = CB-MSC, assay 2, 2.5 uM GW2580, 5.0 × 10^5 cells plated
[11] = CB-MSC, assay 2, 2.5 uM GW2580, Sum of the three densities
[12] = CB-MSC, assay 3, 2.5 uM GW2580, 1.0 × 10^6 cells plated
[13] = CB-MSC, assay 3, 2.5 uM GW2580, 2.5 × 10^5 cells plated
[14] = CB-MSC, assay 3, 2.5 uM GW2580, 5.0 × 10^5 cells plated
[15] = CB-MSC, assay 3, 2.5 uM GW2580, Sum of the three densities

COc1ccc(COc2ccc(Cc3cnc(N)nc3N)cc2OC)cc1 [GW2580, 5-(3-Methoxy-4-((4-methoxybenzyl)oxy)benzyl)pyrimidine-2,4-diamine]
osteogenic differentiation (ALP activity, mineralization) (mouse BM-MSC cultures; BM-MSC, 1 uM for 2 passages, seeded at 4.0×10^4 cells/cm^2, 14 days): a significant and robust increase in osteogenic differentiation | adipogenic and osteogenic differentiation (Oil Red O, ALP/mineralization) (mouse BM-MSC cultures; BM-MSC, 2.5 uM for 2 passages, plated at 4.0×10^4 cells/cm^2, 14 days): substantial adipogenic and osteogenic differentiation | differentiation into osteogenic and adipogenic lineages vs control cultures (mouse BM-MSC cultures; mouse BM-MSC exposed to GW2580 during expansion): stronger and more robust differentiation | inhibition of CSF-1-dependent growth of mouse myeloid cells (mouse myeloid cells): completely inhibited | number of CD45+/CD11b+/Sca1+ cells ([1]; BM, 1 μM): 55% | number of CD45+ cells ([1]; BM, 1 μM (control 52%)): 45% | CD11b+/Sca1+ hematopoietic monocytes, of CD45+ cells ([1]; BM, 1 μM P0 to P2): 44% | CD11b+/Sca1− mature macrophages, of CD45+ cells ([1]; BM, 1 μM P0 to P2): 56% | overall reduction in CD45+ cells ([1]; BM, 1 μM P0 to P2): 18% | reduction in CD45+/CD11b+/Sca1+ monocyte differentiation into mature macrophage (increase in Sca1+ fraction vs control) ([1]; BM, 1 μM P0 to P2): 36% | CD11b+/Sca1+ hematopoietic monocytes, of CD45+ cells ([1]; BM, 1 μM P0 to P3): 52% | CD11b+/Sca1− mature macrophages, of CD45+ cells ([1]; BM, 1 μM P0 to P3): 41% | overall reduction in CD45+ cells ([1]; BM, 1 μM P0 to P3): 64% | reduction in CD45+/CD11b+/Sca1+ monocyte differentiation into macrophages (monocytes prevented from differentiating) ([1]; BM, 1 μM P0 to P3): > 50% and 52% | reduction in CD45+/CD11b+/Sca1− mature macrophage differentiation ([1]; BM, 1 μM, at P3): > 50% | number of CD45+/CD11b+/Sca1+ cells ([1]; BM, 5 μM): 40% | number of CD45+ cells ([1]; BM, 5 μM (control 52%)): 33% | number of CD45+/CD11b+/Sca1+ cells ([1]; BM, 10 μM): 34% | number of CD45+ cells ([1]; BM, 10 μM (control 52%)): 28% | CD45+/CD11b+ mature macrophages, of total viable cells ([1]; BM, P1, 1 μM): 60% and 62% | reduction in macrophages vs control ([1]; BM, P1, 1 μM): 20% | CD45+/CD11b+ mature macrophages, of viable cells ([1]; BM-derived cultures, 1 μM up to P2): < 1% | macrophage contamination and MSC enrichment (images) ([2]; 1 μM continuous P0-P3): have reduced numbers of macrophages; also recorded: contain a much reduced number of these contaminating macrophages | macrophage contamination and MSC enrichment (images) ([2]; 1 μM, P2): a much reduced number of macrophages is observed; also recorded: enriched and mostly devoid of macrophage contamination | macrophage contamination and MSC appearance (images) ([2]; BM, 1, 5 and 10 μM): have reduced numbers of contaminating macrophages; also recorded: a noticeable decrease in macrophages was noticed | overall minimal increase in number of MSC colonies vs control ([3]; CB-MSC, 1 or 2.5 uM, three assays): ≥ 20% | % increase in number of MSC colonies vs control [3, 4]: 51% | Number of MSC colonies [3, 4]: 77 | % increase in number of MSC colonies vs control [3, 5]: 30% | Number of MSC colonies [3, 5]: 133 | % increase in number of MSC colonies vs control [3, 6]: 70% | Number of MSC colonies [3, 6]: 46 | % increase in number of MSC colonies vs control [3, 7]: 42% | Number of MSC colonies [3, 7]: 256 | % increase in number of MSC colonies vs control [3, 8]: 84% | Number of MSC colonies [3, 8]: 83 | % increase in number of MSC colonies vs control [3, 9]: 25% | Number of MSC colonies [3, 9]: 15 | % increase in number of MSC colonies vs control [3, 10]: 9% | Number of MSC colonies [3, 10]: 36 | % increase in number of MSC colonies vs control [3, 11]: 49% | Number of MSC colonies [3, 11]: 134 | % increase in number of MSC colonies vs control [3, 12]: 84% | Number of MSC colonies [3, 12]: 147 | % increase in number of MSC colonies vs control [3, 13]: 25% | Number of MSC colonies [3, 13]: 35 | % increase in number of MSC colonies vs control [3, 14]: 29% | Number of MSC colonies [3, 14]: 89 | % increase in number of MSC colonies vs control [3, 15]: 53% | Number of MSC colonies [3, 15]: 271 | increase in colony number compared to control cultures ([3]; CB-derived, 1 μM): at least 24% | MSC CFU-F appearance (colony size, macrophages) ([3]; CB-derived, 1 μM, Toluidine blue): bigger in size and have a much reduced number of macrophages; also recorded: larger, enriched MSC CFU-F that are mostly free of macrophages | adipogenic and osteogenic differentiation vs control-expanded cultures (human BM-derived MSCs): differentiated equally well

Reference: patent US10017741B2, “Compositions and methods for obtaining enriched mesenchymal stem cell cultures” (StemCell Technologies Inc., priority 2013, dated 2018)
